This is an account of results in patent publication US20230373937A1, “INHIBITORS OF SPINSTER HOMOLOG 2 (SPNS2) FOR USE IN THERAPY” (University of Virginia Patent Foundation, priority 2020, published 2023).

Structures can show the parent of a compound that is named as a salt.

The assay addresses T1, SPNS2 (Mus musculus, UniProt Q91VM4).
T1 construct: expressed in transfected cells; host or cells: HeLa or U937 cells
T1 sequence (Q91VM4 1-549): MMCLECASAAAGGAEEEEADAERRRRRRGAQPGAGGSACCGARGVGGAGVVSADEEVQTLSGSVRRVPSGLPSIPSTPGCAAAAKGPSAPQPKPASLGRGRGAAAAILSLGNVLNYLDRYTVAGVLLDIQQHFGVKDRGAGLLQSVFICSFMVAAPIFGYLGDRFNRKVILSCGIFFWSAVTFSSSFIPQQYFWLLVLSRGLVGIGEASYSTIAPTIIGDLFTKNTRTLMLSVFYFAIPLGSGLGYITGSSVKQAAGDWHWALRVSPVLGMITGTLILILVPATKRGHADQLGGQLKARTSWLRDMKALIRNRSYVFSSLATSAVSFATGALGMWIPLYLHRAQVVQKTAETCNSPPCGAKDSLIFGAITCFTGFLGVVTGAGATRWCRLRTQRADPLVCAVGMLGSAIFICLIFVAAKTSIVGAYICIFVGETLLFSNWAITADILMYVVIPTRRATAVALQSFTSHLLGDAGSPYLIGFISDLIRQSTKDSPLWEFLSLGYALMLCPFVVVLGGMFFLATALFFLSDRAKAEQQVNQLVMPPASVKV
Put plainly: S1P transporter assay: S1P release from whole cells expressing SPNS2. It counts as cell-based. Conditions: HeLa or U937 cells expressing mouse SPNS2; 18 hours; S1P in media measured by LC-MS; read-out: IC50 (in vitro inhibition against SPNS2). As to the method: Transporter assays are vectorial and therefore require measurement of the transported analyte in different compartments. The S1P transporter SPNS2 only exports S1P, which obviates measuring uptake of S1P into transporter-expressing cells. Thus, transporter activity was determined by quantifying S1P release from whole cells expressing SPNS2. SPNS2 inhibitor potency was assessed using whole cell assays. HeLa or U937 cells expressing mouse SPNS2 were used to determine inhibitor potency (IC50). Cells were plated onto 12 well plates and assayed when the cell monolayers became confluent. Cell growth media (RPMI-1640 containing 10% fetal bovine serum) was replaced with 2 mL of serum-free media (RPMI-1640) containing fatty acid free bovine serum albumin (BSA) (0.2% w/v) and supplemented with 4-deoxypyridoxine (DOP) (1 mM), NaF (2 mM), Na3VO4 (0.2 mM) to inhibit S1P degradation. Test articles (1×10-9-1×10^-4 M) were assayed in duplicate or triplicate. After 18 hours, media was collected, an internal recovery standard (0.005 mL of 5×10^-7 M deuterated (d7) S1P in methanol) was added, the BSA was precipitated with trichloroacetic acid and the bound S1P extracted with methanol. S1P and S1P-d7 were measured by liquid chromatography mass spectrometry. Inhibitor potency at the human SPNS2 ortholog was determined by an analogous assay using U-937 cells, which endogenously express human SPNS2.
As to `CCCCCCCCCCc1ccc(-c2noc(C(Cl)CCN)n2)cc1` (racemic) [Compound 5k, (±)-3-chloro-3-(3-(4-decylphenyl)-1,2,4-oxadiazol-5-yl)propan-1-amine hydrochloride], the IC50 (commonly the concentration needed to halve the response being measured) is more than 2 µM.
Turning to `CCCCCCCCCCc1ccc(-c2noc([C@H]3CCC[C@@H](N)C3)n2)cc1` (racemic) [Compound 5p, (f)-cis-3-(3-(4-decylphenyl)-1,2,4-oxadiazol-5-yl)cyclohexan-1-amine hydrochloride], the concentration for half-maximal inhibition (IC50) was more than 2 µM.
As for `CCCCCCCCCCc1ccc(-c2noc([C@@H]3CCC[C@@H](N)C3)n2)cc1` (racemic) [Compound 5q, (±)-trans-3-(3-(4-decylphenyl)-1,2,4-oxadiazol-5-yl)cyclohexan-1-amine hydrochloride], the figure is more than 2 µM; as for `CCCCCCCCCCc1ccc(-c2noc(C3CCNCC3)n2)cc1` [Compound 5a, 3-(4-decylphenyl)-5-(piperidin-4-yl)-1,2,4-oxadiazole 2,2,2-trifluoroacetate], more than 2 µM.
Take `CCCCCCCCCCc1ccc(-c2noc(CCN)n2)cc1` [Compound 5b, 2-(3-(4-decylphenyl)-1,2,4-oxadiazol-5-yl)ethan-1-amine 2,2,2-trifluoroacetate]: the half-maximal inhibitory concentration (IC50) is not above 2 µM.
As to `CCCCCCCCCCc1ccc(-c2noc(C[C@H](C)N)n2)cc1` [Compound 5c, (S)-1-(3-(4-decylphenyl)-1,2,4-oxadiazol-5-yl)propan-2-amine 2,2,2-trifluoroacetate], the half-maximal inhibitory concentration (IC50) was more than 2 µM.
`CCCCCCCCCCc1ccc(-c2noc([C@@H]3CC[C@H](N)C3)n2)cc1` [Compound 5d, (1S,3R)-3-(3-(4-decylphenyl)-1,2,4-oxadiazol-5-yl)cyclopentan-1-amine hydrochloride]: the half-maximal inhibitory concentration (IC50) is more than 2 µM.
Next, `CCCCCCCCCCc1ccc(-c2noc(CCCN)n2)cc1` [Compound 5e, 3-(3-(4-decylphenyl)-1,2,4-oxadiazol-5-yl)propan-1-amine 2,2,2-trifluoroacetate]: not above 2 µM.
Next, `CCCCCCCCCCc1ccc(-c2noc(CN)n2)cc1` [Compound 5f, (3-(4-decylphenyl)-1,2,4-oxadiazol-5-yl)methanamine 2,2,2-trifluoroacetate]: not above 2 µM; `CCCCCCCCCCc1ccc(-c2noc(CC(O)CN)n2)cc1` (centres unmarked) [Compound 5g, 1-amino-3-(3-(4-decylphenyl)-1,2,4-oxadiazol-5-yl)propan-2-ol hydrochloride]: more than 2 µM.
As for `CCCCCCCCCCc1ccc(-c2noc(CN3CCNCC3)n2)cc1` [Compound 5h, 3-(4-decylphenyl)-5-(piperazin-1-ylmethyl)-1,2,4-oxadiazole 2,2,2-trifluoroacetate], the figure is not above 2 µM; as for `NCCCc1nc(-c2ccc(OCc3ccccc3)cc2)no1` [Compound 5i, 3-(3-(4-(benzyloxy)phenyl)-1,2,4-oxadiazol-5-yl)propan-1-amine hydrochloride], more than 2 µM; as for `CCCCCCCCCCc1cccc(-c2noc(CCCN)n2)c1` [Compound 5j, 3-(3-(3-decylphenyl)-1,2,4-oxadiazol-5-yl)propan-1-amine hydrochloride], not above 2 µM.
Take `CCCCCCCCCCc1ccc(-c2noc(CCCN(C)C)n2)cc1` [Compound 5l, 3-(3-(4-decylphenyl)-1,2,4-oxadiazol-5-yl)-N,N-dimethylpropan-1-amine hydrochloride]: the IC50 was more than 2 µM.
Next, `CCCCCCCCCCc1ccc(-c2noc(CCCNC)n2)cc1` [Compound 5m, 3-(3-(4-decylphenyl)-1,2,4-oxadiazol-5-yl)-N-methylpropan-1-amine hydrochloride]: more than 2 µM; `CCCCCCCCCCc1ccc(-c2noc(CC(CN)OC(C)=O)n2)cc1` (centres unmarked) [Compound 5n, 1-amino-3-(3-(4-decylphenyl)-1,2,4-oxadiazol-5-yl)propan-2-yl acetate hydrochloride]: more than 2 µM; `CCCCCCCCCc1ccc(Cc2noc(CCCN)n2)cc1` [Compound 5r, 3-(3-(4-nonylbenzyl)-1,2,4-oxadiazol-5-yl)propan-1-amine hydrochloride]: more than 2 µM.
